Tested on: learning and memory process of mouse (memory and learning impediment induced by scopolamine)
Test: Step-down platform electrical-shock avoidance test of learning and memory (RT, EN) in scopolamine-treated mice
Format: in vivo
Settings: for Memory Results EN / Learning Results EN / Memory Results RT / Learning Results RT: scopolamine 1 mg/kg; for Memory Results EN / Memory Results RT: memory test 24 hrs later; for Learning Results EN / Learning Results RT: training trial
Experimental: The pharmacological tests of memory-enhancing peptide in this invention have been performed as following: the animals have been divided into three groups: drug administration group, control group and model group, with each group administrated with memory-enhancing peptide, saline and scopolamine respectively. In the test, the groups except control group were injected with scopolamine after the administration of medicine about 50 min., 10 min. later, the training began. First, the animals will be put into reaction box for 3 min. before each trails to familiarize them with the environment. Then, the reaction box are charged with 36V alternating current. When the animal subjects to electrical shock, it will jump up to the central platform to avoid harmful stimulation as a normal response. Most of animals may be return to the copper curdles twice or even more times, but they will jump back to the platform swiftly as the results of electrical shock. Each test trail will be performed for 5 min. and two following indices will be used to represent the learning results: (I) the number of total error (EN) during the whole training period; (2) the reaction time (RT) for the first returning to the copper curdle in the trail. The trails will repeat again 24 hrs later as memory test.

| Compound | Memory Results EN (Huperzine A 100 μg/kg) | Learning Results EN (Huperzine A 100 μg/kg, number of total errors) | Effect on memory and learning impediment induced by scopolamine, compared with model group (0.5 μg and 1 μg/kg, longer incubation period and lesser error numbers, P<0.01 vs model group) | Effect on scopolamine-induced memory and learning impediment compared with Huperzine A (0.5 μg/kg and 1 μg/kg versus Huperzine A 100 μg/kg) | Memory Results EN (drug dosage 0.25 μg/kg) | Memory Results RT (drug dosage 0.25 μg/kg) [s] | Learning Results EN (drug dosage 0.25 μg/kg) | Learning Results RT (drug dosage 0.25 μg/kg) [s] | Memory Results EN (drug dosage 0.5 μg/kg) | Memory Results RT (drug dosage 0.5 μg/kg) [s] | Learning Results EN (drug dosage 0.5 μg/kg) | Learning Results RT (drug dosage 0.5 μg/kg) [s] | Memory Results EN (drug dosage 1 μg/kg) | Memory Results RT (drug dosage 1 μg/kg) [s] | Learning Results EN (drug dosage 1 μg/kg) | Learning Results RT (drug dosage 1 μg/kg) [s] | Overall effect on memory and learning impediment induced by scopolamine (results of Table 1) (summary statement, no dose given) |
| --- | --- | --- | --- | --- | --- | --- | --- | --- | --- | --- | --- | --- | --- | --- | --- | --- | --- |
| C/C=C1\[C@H]2C=C(C)C[C@]1(N)c1ccc(=O)[nH]c1C2 [Huperzine A, reference compound] | 0.9 | 1.3 |  |  |  |  |  |  |  |  |  |  |  |  |  |  |  |
| PyroGlu—Asn—Cys(S—Bu^t)—Pro—Arg [MEP-531] |  |  | obviously improve the memory and learning impediment induced by scopolamine | better effects than Huperzine A | 0.9 | 197.6 | 0.3 | 78.8 | 0.5 | 245.5 | 0.2 | 241.6 | 0.3 | 282.8 | 0.3 | 267.6 | remarkably ameliorate the memory and learning impediment induced by scopolamine |

From patent publication US20040116656A1, “Memory-enhancing peptides and the use thereof” (priority 2000, published 2004)
